According to US20240408169A1 (priority 2023, published 2024):
*1 amine or outer side, *2 acyl side, *3 side chain or, on linkers, in order; H or OH if unused. Where a SMILES comes first, the peptide text is derived from it. Bridges are numbered along the chain shown (N, C = ends). [ ]: non-standard residue; d: D form. The star is where a group is joined. NMePhe(2-(4-MorPh),5-Cl) = CN[C@@H](Cc1cc(Cl)ccc1-c1ccc(N2CCOCC2)cc1)C(=O)O; X42 = CN([C@@H](Cc1cc(Cl)ccc1-c1cnn(S(=O)(=O)C2CC2)c1)C(=O)[*:2])[*:1]; X46 = CN([C@@H](Cc1cc(Cl)ccc1-c1ccc(S(C)(=O)=O)cc1)C(=O)[*:2])[*:1]; X82 = CN([C@@H](Cc1cc(Cl)ccc1-c1cnn(S(C)(=O)=O)c1)C(=O)[*:2])[*:1]; X18 = CC(=O)N1CCC(=Cc2ccc(Cl)cc2C[C@@H](C(=O)[*:2])N(C)[*:1])CC1; X76 = CN([C@@H](Cc1cc(Cl)ccc1-c1cnn2cccnc12)C(=O)[*:2])[*:1]; NMehhhLys(Me) = CN([C@@H](CCCCCCCN(C)[*:3])C(=O)[*:2])[*:1]; X64 = CN([C@@H](Cc1cc(Cl)ccc1OC1(C)CC1)C(=O)[*:2])[*:1]; X66 = CN([C@@H](Cc1cc(Cl)ccc1-c1cccnc1)C(=O)[*:2])[*:1]; NMe(hhhLys) = CN([C@@H](CCCCCCCN[*:3])C(=O)[*:2])[*:1]; NMe3Pal(2-OMe,5-Cl) = CN[C@@H](Cc1cc(Cl)cnc1OC)C(=O)O; Oxane2carbonyl(2R-CF3) = O=C([C@@]1(C(F)(F)F)CCCCO1)*; cBuCO(3,3-F2-1-CF3) = O=C(C1(C(F)(F)F)CC(F)(F)C1)*; X4 = Cc1ccc(Cl)cc1C[C@@H](C(=O)[*:2])N(C)[*:1]; Pro(trans-4-F) = O=C(O)[C@@H]1C[C@@H](F)CN1; Gly(cPr) = N[C@H](C(=O)O)C1CC1

Experiments:
CyclinB1/CDK1 = target: T1, CyclinB1/CDK1 (Homo sapiens, UniProt P14635); test: Fluorescence Polarization (FP) competitive binding assay, Cyclin B1/Cdk1; settings: 10 nM Cyclin B1/Cdk1, 2 nM FAM probe; average of 2-3 independent experiments; read-out: Cyclin B FP IC50;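 further: fluorescence polarization read after equilibration at room temperature, with IC50 taken from serially diluted dose-response curves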
T1 construct: purchased Eurofins, discovery 14-450

WI-38 cells = test: MTT proliferation assay, WI-38; format: cell-based; settings: 3 days compound exposure, 1:3 serial dilution starting at 10 μM;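 further: Eight- or ten-point dilution series, with exposure length chosen to span about three to four cell doublings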
OVCAR3 cells = test: MTT proliferation assay, OVCAR3; format: cell-based; settings: 5 days compound exposure, 1:3 serial dilution starting at 10 μM;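 further: compound given as an 8- or 10-point series, one day after plating, with exposure covering roughly 3-4 cell doublings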
CyclinE1/CDK2 = target: T2, CyclinE1/CDK2 (Homo sapiens, UniProt P24864); test: Fluorescence Polarization (FP) competitive binding assay, Cyclin E1/Cdk2; settings: 10 nM Cyclin E1/Cdk2, 2 nM FAM probe; average of 2-3 independent experiments; read-out: Cyclin E FP IC50;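 further: readings taken after two-hour equilibration at room temperature in HEPES buffer with NaCl, DTT, NP-40 and BSA, IC50 fitted from eight-concentration serial dilution series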
T2 construct: purchased Eurofins, discovery 14-475

CyclinA2/CDK2 = target: T3, CyclinA2/CDK2 (Homo sapiens, UniProt P20248); test: Fluorescence Polarization (FP) competitive binding assay, Cyclin A2/Cdk2; settings: 8 nM Cyclin A2/Cdk2, 2 nM FAM probe; average of 2-3 independent experiments; read-out: Cyclin A FP IC50;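 further: plates equilibrated two hours at room temperature before polarization reading, IC50 fitted from eight-concentration compound titration curves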
T3 construct: purchased CRELUX Protein Services

NCI-H1048 cells = test: MTT proliferation assay, NCI-H1048; format: cell-based; settings: 5 days compound exposure, 1:3 serial dilution starting at 10 μM;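 further: Dose-response in 96-well plates over 8 or 10 concentration points, with exposure spanning 3-4 cell doublings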

Row | Structure (SMILES) | IC50 (CyclinB1/CDK1) | GI50 (WI-38 cells) | GI50 (OVCAR3 cells) | IC50 (CyclinE1/CDK2) | IC50 (CyclinA2/CDK2) | GI50 (NCI-H1048 cells)
1 | CC(C)C[C@@H]1NC(=O)[C@@H](N(C)C(=O)[C@@H](NC(=O)[C@@H]2C[C@@H](F)CN2C(=O)C2(C(F)(F)F)CC(F)(F)C2)C2CC2)C/C=C\CCCCN(C)C(=O)[C@H](Cc2cc(Cl)cnc2OC2CC2)N(C)C1=O [Example 258] | 0.02 µM | 14.2 µM | 0.07 µM | 0.12 µM | 0.07 µM | 0.07 µM
2 | CC(C)C[C@@H]1NC(=O)[C@@H](N(C)C(=O)[C@@H](NC(=O)[C@@H]2C[C@@H](F)CN2C(=O)C2(C(F)(F)F)CC(F)(F)C2)C2CC2)CCCCCCCN(C)C(=O)[C@H](Cc2cc(Cl)ccc2OC2(C)CC2)N(C)C1=O [Example 259] ({cBuCO(3,3-F2-1-CF3)}-[Pro(trans-4-F)][Gly(cPr)][NMehhhLys(Me)]L[X64]; lactam 3-C) | 0.02 µM | 10.4 µM | 0.11 µM | 0.28 µM | 0.07 µM | 0.11 µM
3 | CC(C)C[C@@H]1NC(=O)[C@@H](N(C)C(=O)[C@@H](NC(=O)[C@@H]2C[C@@H](F)CN2C(=O)[C@@]2(C(F)(F)F)CCCCO2)C2CC2)CCCCCCCN(C)C(=O)[C@H](Cc2cc(Cl)ccc2OC2(C)CC2)N(C)C1=O [Example 260] ({Oxane2carbonyl(2R-CF3)}-[Pro(trans-4-F)][Gly(cPr)][NMehhhLys(Me)]L[X64]; lactam 3-C) | 0.02 µM | 6.39 µM | 0.04 µM | 0.1 µM | 0.05 µM | 0.04 µM
4 | CC(C)C[C@@H]1NC(=O)[C@@H](N(C)C(=O)[C@@H](NC(=O)[C@@H]2C[C@@H](F)CN2C(=O)C2(C(F)(F)F)CC(F)(F)C2)C2CC2)CCCCCCCN(C)C(=O)[C@H](Cc2cc(Cl)ccc2-c2ccc(N3CCOCC3)cc2)N(C)C1=O [Example 261] ({cBuCO(3,3-F2-1-CF3)}-[Pro(trans-4-F)][Gly(cPr)][NMehhhLys(Me)]L[NMePhe(2-(4-MorPh),5-Cl)]; lactam 3-C) | 0.02 µM | 14.1 µM | 0.01 µM | 0.43 µM | 0.02 µM | 0.01 µM
5 | CC(C)C[C@@H]1NC(=O)[C@@H](N(C)C(=O)[C@@H](NC(=O)[C@@H]2C[C@@H](F)CN2C(=O)C2(C(F)(F)F)CC(F)(F)C2)C2CC2)CCCCCCCN(C)C(=O)[C@H](Cc2cc(Cl)ccc2-c2ccc(S(C)(=O)=O)cc2)N(C)C1=O [Example 262] ({cBuCO(3,3-F2-1-CF3)}-[Pro(trans-4-F)][Gly(cPr)][NMehhhLys(Me)]L[X46]; lactam 3-C) | 0.02 µM | 16.2 µM | 0.02 µM | 0.91 µM | 0.02 µM | 0.01 µM
6 | Cc1ccc(Cl)cc1C[C@H]1C(=O)NCCCCCCC[C@H](N(C)C(=O)[C@@H](NC(=O)[C@@H]2C[C@@H](F)CN2C(=O)C2(C(F)(F)F)CC(F)(F)C2)C2CC2)C(=O)N[C@@H](CC(C)C)C(=O)N1C [Example 270] ({cBuCO(3,3-F2-1-CF3)}-[Pro(trans-4-F)][Gly(cPr)][NMe(hhhLys)]L[X4]; lactam 3-C) | 0.02 µM | 13.4 µM | 0.07 µM | 0.37 µM | 0.06 µM | 0.08 µM
7 | COc1ncc(Cl)cc1C[C@H]1C(=O)NCCCCCCC[C@H](N(C)C(=O)[C@@H](NC(=O)[C@@H]2C[C@@H](F)CN2C(=O)[C@@]2(C(F)(F)F)CCCCO2)C2CC2)C(=O)N[C@@H](CC(C)C)C(=O)N1C [Example 274] ({Oxane2carbonyl(2R-CF3)}-[Pro(trans-4-F)][Gly(cPr)][NMe(hhhLys)]L[NMe3Pal(2-OMe,5-Cl)]; lactam 3-C) | 0.02 µM | 10.5 µM | 0.01 µM | 0.1 µM | 0.03 µM | 0.01 µM
8 | CC(C)C[C@@H]1NC(=O)[C@@H](N(C)C(=O)[C@@H](NC(=O)[C@@H]2C[C@@H](F)CN2C(=O)C2(C(F)(F)F)CC(F)(F)C2)C2CC2)CCCCCCCNC(=O)[C@H](Cc2cc(Cl)ccc2-c2cccnc2)N(C)C1=O [Example 276] ({cBuCO(3,3-F2-1-CF3)}-[Pro(trans-4-F)][Gly(cPr)][NMe(hhhLys)]L[X66]; lactam 3-C) | 0.02 µM | 23.4 µM | 0.02 µM | 0.7 µM | 0.03 µM | 0.02 µM
9 | CC(C)C[C@@H]1NC(=O)[C@@H](N(C)C(=O)[C@@H](NC(=O)[C@@H]2C[C@@H](F)CN2C(=O)[C@@]2(C(F)(F)F)CCCCO2)C2CC2)CCCCCCCN(C)C(=O)[C@H](Cc2cc(Cl)ccc2-c2cnn(S(=O)(=O)C3CC3)c2)N(C)C1=O [Example 283] ({Oxane2carbonyl(2R-CF3)}-[Pro(trans-4-F)][Gly(cPr)][NMehhhLys(Me)]L[X42]; lactam 3-C) | 0.02 µM | 14.2 µM | 0.01 µM | 0.18 µM | 0.03 µM | 0.01 µM
10 | CC(=O)N1CC=C(c2ccc(Cl)cc2C[C@H]2C(=O)NCCC=CCCC[C@H](N(C)C(=O)[C@@H](NC(=O)[C@@H]3C[C@@H](F)CN3C(=O)C3(C(F)(F)F)CC(F)(F)C3)C3CC3)C(=O)N[C@@H](CC(C)C)C(=O)N2C)CC1 [Example 286] | 0.02 µM | 6.5 µM | 0.05 µM | 4.02 µM | 0.08 µM | 0.06 µM
11 | CC(=O)N1CCC(=Cc2ccc(Cl)cc2C[C@H]2C(=O)NCCCCCCC[C@H](N(C)C(=O)[C@@H](NC(=O)[C@@H]3C[C@@H](F)CN3C(=O)C3(C(F)(F)F)CC(F)(F)C3)C3CC3)C(=O)N[C@@H](CC(C)C)C(=O)N2C)CC1 [Example 288] ({cBuCO(3,3-F2-1-CF3)}-[Pro(trans-4-F)][Gly(cPr)][NMe(hhhLys)]L[X18]; lactam 3-C) | 0.02 µM | 13.8 µM | 0.02 µM | 0.36 µM | 0.03 µM | 0.02 µM
12 | CC(=O)N1CCC(=Cc2ccc(Cl)cc2C[C@H]2C(=O)N(C)CCCCCCC[C@H](N(C)C(=O)[C@@H](NC(=O)[C@@H]3C[C@@H](F)CN3C(=O)C3(C(F)(F)F)CC(F)(F)C3)C3CC3)C(=O)N[C@@H](CC(C)C)C(=O)N2C)CC1 [Example 289] ({cBuCO(3,3-F2-1-CF3)}-[Pro(trans-4-F)][Gly(cPr)][NMehhhLys(Me)]L[X18]; lactam 3-C) | 0.02 µM | 3.78 µM | 0.01 µM | 0.32 µM | 0.03 µM | 0.01 µM
13 | CC(C)C[C@@H]1NC(=O)[C@@H](N(C)C(=O)[C@@H](NC(=O)[C@@H]2C[C@@H](F)CN2C(=O)C2(C(F)(F)F)CC(F)(F)C2)C2CC2)CCCCCCCN(C)C(=O)[C@H](Cc2cc(Cl)ccc2-c2cnn3cccnc23)N(C)C1=O [Example 297] ({cBuCO(3,3-F2-1-CF3)}-[Pro(trans-4-F)][Gly(cPr)][NMehhhLys(Me)]L[X76]; lactam 3-C) | 0.02 µM | 9.15 µM | 0.03 µM | 1.27 µM | 0.04 µM | 0.02 µM
14 | CC(C)C[C@@H]1NC(=O)[C@@H](N(C)C(=O)[C@@H](NC(=O)[C@@H]2C[C@@H](F)CN2C(=O)[C@@]2(C(F)(F)F)CCCCO2)C2CC2)CCCCCCCN(C)C(=O)[C@H](Cc2cc(Cl)ccc2-c2cnn(S(C)(=O)=O)c2)N(C)C1=O [Example 299] ({Oxane2carbonyl(2R-CF3)}-[Pro(trans-4-F)][Gly(cPr)][NMehhhLys(Me)]L[X82]; lactam 3-C) | 0.02 µM | 14.3 µM | 0.01 µM | 0.13 µM | 0.02 µM | 0.01 µM
